Publication PMC4506051, “Pharmacokinetic Profiles of Active Ingredients and Its Metabolites Derived from Rikkunshito, a Ghrelin Enhancer, in Healthy Japanese Volunteers: A Cross-Over, Randomized Study” (PLoS ONE, 2015)

Columns and labels:
[1] = Stability of ingredients in gastric pH solution (pH 1.2, 37°C); format: physicochemical
Procedure: Rikkunshito gradually dissolved in acidic solution (pH 1.2) at 37°C, and the concentration of atractylodin after adding 0.25, 0.5, 1, and 2 h was measured by gas chromatography–mass spectrometry.

[2] = Exploratory trial: amount of rikkunshito ingredients in urine; format: in vivo, human
Procedure: (§1) In the first exploratory trial, 20-mL blood samples were collected from the cutaneous vein in the subjects’ forearm via a blood sampling tube that contained heparin at 0 (preadministration), 0.5, 1, 2, 4, and 8 h after a single oral administration of rikkunshito (Lot E24652). The dose of rikkunshito used in this trial was 7.5 g/day, which is the clinical daily dose, to widely explore rikkunshito-derived ingredients that enter the blood. Along with plasma, urine samples were collected at three points: between dinner and bedtime (preadministration), between 0 and 4 h after administration, and between 4 and 8 h after administration. The blood was immediately centrifuged at 1700 ×g for 10 min to obtain plasma. Plasma and urine fractions were stored at −80°C or lower until analysis.
(§2) For quantification of synephrine, 5 µL of standard solution or methanol was added to 100 µL plasma or urine samples followed by mixing. Ten microliters of erythromycin [internal standard (IS)] solution was added to the solutions followed by mixing and centrifugation (20,400 ×g, 5 min, 4°C). The supernatants were loaded onto an Ostro 96-well plate (Waters) and centrifuged (1500 ×g, 3 min, 4°C) followed by injection into the LC–MS/MS.
(§3) For quantification of 30 ingredients other than atractylodin and synephrine, 25 µL of standard solution or methanol was added to 500 µL plasma or urine samples followed by mixing. Atractylenolide III or digoxin (IS) solution (50 μL) was added to the solutions followed by mixing. For urine, 400 µL of blank plasma was added to the solutions. Ammonium acetate solution (100 mM, 100 or 400 µL) was added to the solutions followed by mixing. For enzymatic treatment, plasma and urine samples were incubated with β-glucuronidase (100 units in 100 mM ammonium acetate) for 2 h at 37°C. A solid-phase cartridge (OASIS HLB, 30 mg/1cc, Waters) was conditioned with methanol and 10 mM ammonium acetate solution, and the samples were loaded onto the cartridge. The cartridge was washed water : methanol (9:1, v/v), and 1.5 mL of methanol and 30 µL of propylene glycol were added to the cartridge to elute the analytes. The mixtures were dried at 25°C under a stream of nitrogen gas. Furthermore, 100 μL of 10 mM ammonium acetate : methanol (8:2, v/v) was added to the dried samples followed by mixing and sonication. The solutions were filtered (0.22 µm) and followed by injection into the LC–MS/MS system. […] Those analytical conditions are summarized in S2 Table and S3 Table.

[3] = Exploratory trial: ingredients in β-glucuronidase (enzyme)-treated urine; format: in vivo, human
Procedure: as §1, §3

[4] = Exploratory trial: plasma concentration of rikkunshito ingredients after single oral rikkunshito 7.5 g; format: in vivo; details: for Plasma concentration, 0 h: 0 h (preadministration), single oral rikkunshito 7.5 g; for Plasma concentration, 4 h: 4 h after single oral rikkunshito 7.5 g; for Plasma concentration, 8 h: 8 h after single oral rikkunshito 7.5 g
Procedure: A random sequence was generated using a computer. The safety endpoint was evaluated in all volunteers.
as §1, §2, §3

[5] = Exploratory trial: ingredients in β-glucuronidase (enzyme)-treated plasma; format: in vivo, human; details: β-glucuronidase-treated, rikkunshito 7.5 g, mean ± S.D., n = 4
Procedure: as §1, §3

[6] = Method validation: stability in standard, stock and working solution; details: IS 2000 ng/mL
[7] = Formation of ingredients derived from rikkunshito in formulation, blood, and urine (S11 Table summary); details: after rikkunshito administration, per ingredient in the formulation
[8] = 0–4 h after single oral rikkunshito 7.5 g, mean ± S.D., n = 4
[9] = 4–8 h after single oral rikkunshito 7.5 g, mean ± S.D., n = 4
[10] = preadministration (between dinner and bedtime), mean ± S.D., n = 4
[11] = β-glucuronidase-treated, 0–4 h after rikkunshito 7.5 g, mean ± S.D., n = 4
[12] = β-glucuronidase-treated, 4–8 h after rikkunshito 7.5 g, mean ± S.D., n = 4
[13] = β-glucuronidase-treated, preadministration, mean ± S.D., n = 4
[14] = rikkunshito in acidic solution (pH 1.2) at 37°C, 0.5 h
[15] = rikkunshito in acidic solution (pH 1.2) at 37°C, 1 h
[16] = rikkunshito in acidic solution (pH 1.2) at 37°C, 2 h

COc1c(CC=C(C)C)c(O)cc2oc(=O)c(-c3ccc(O)cc3O)cc12 [Glycycoumarin]
Stability in gastric pH solution, Quantitative value ([1]; 0.5 h, pH 1.2): 5.58 ng/mL
Stability in gastric pH solution, Quantitative value ([1]; 1 h, pH 1.2): 7.09 ng/mL
Stability in gastric pH solution, Quantitative value ([1]; 2 h, pH 1.2): 5.09 ng/mL
Amount in urine, 0–4 h [2, 8]: 2300 ± 1150 ng
Amount in urine, 4–8 h [2, 9]: 1600 ± 886 ng
Amount in urine, Pre [2, 10]: 4.61 ± 4.20 ng
Amount in enzyme-treated urine, 0–4 h [3, 11]: 7010 ± 2840 ng
Amount in enzyme-treated urine, 4–8 h [3, 12]: 3260 ± 1580 ng
Amount in enzyme-treated urine, Pre [3, 13]: 22.8 ± 19.7 ng
Plasma concentration, 0 h ([4]; mean ± S.D., n = 4): BQL
Plasma concentration, 4 h ([4]; mean ± S.D., n = 4): BQL
Plasma concentration, 8 h ([4]; mean ± S.D., n = 4): BQL
Plasma concentration of unchanged form before enzyme treatment ([4]; detected in only one subject, at any time point): approximately 30 pg/ml
concentration at 0.5 h ([4]; human, plasma, 0.5 h after single oral rikkunshito 7.5 g, mean ± S.D., n = 4, read-out: Plasma concentration, 0.5 h): 0.00923 ± 0.0185 ng/mL
concentration at 1 h ([4]; human, plasma, 1 h after single oral rikkunshito 7.5 g, mean ± S.D., n = 4): 0.00715 ± 0.0143 ng/mL
concentration at 2 h ([4]; human, plasma, 2 h after single oral rikkunshito 7.5 g, mean ± S.D., n = 4, read-out: Plasma concentration, 2 h): 0.00693 ± 0.0139 ng/mL
concentration at 0.5 h ([5]; human, plasma, oral, 0.5 h): 2.34 ng/mL
concentration at 1 h ([5]; human, plasma, oral, 1 h): 0.987 ± 0.36 ng/mL
concentration at 2 h ([5]; human, plasma, oral, 2 h, read-out: Plasma concentration in enzyme-treated plasma, 2 h): 0.328 ± 0.183 ng/mL
concentration at 4 h ([5]; human, plasma, oral, 4 h, read-out: Plasma concentration in enzyme-treated plasma, 4 h): 0.371 ± 0.113 ng/mL
concentration at 8 h ([5]; human, plasma, oral, 8 h, read-out: Plasma concentration in enzyme-treated plasma, 8 h): 0.222 ± 0.134 ng/mL
Plasma concentration in enzyme-treated plasma, 0 h ([5]; 0 h (preadministration)): BQL
Plasma concentration in enzyme-treated plasma, 0.5 h ([5]; 0.5 h): 2.34 ± 0.848 ng/mL

C=C1CCC[C@]2(C)C[C@]3(O)OC(=O)C(C)=C3C[C@@H]12 [IS, Atractylenolide III, reference compound]
Short-term stability of standard solution, RR ([6]; at room temperature for 24 h): IS: 100.0%
Long-term stability of standard solution, RR ([6]; refrigerator (0.5°C to 7.4°C) for 4 weeks): IS: 93.4%

CNCC(O)c1ccc(O)cc1 (stereo not drawn) [Synephrine]
Stability in gastric pH solution, Quantitative value [1, 14]: 3200 ng/mL
Stability in gastric pH solution, Quantitative value [1, 15]: 3180 ng/mL
Stability in gastric pH solution, Quantitative value [1, 16]: 2960 ng/mL
Amount in urine, 0–4 h [2, 8]: 2150 ± 296 ng
Amount in urine, 4–8 h [2, 9]: 798 ± 282 ng
Amount in urine, Pre [2, 10]: 24.2 ± 28.8 ng
Plasma concentration, 0 h ([4]; mean ± S.D., n = 4): BQL
Plasma concentration, 0.5 h ([4]; 0.5 h after single oral rikkunshito 7.5 g, mean ± S.D., n = 4): 0.029 ± 0.058 ng/mL
Plasma concentration, 1 h ([4]; 1 h after single oral rikkunshito 7.5 g, mean ± S.D., n = 4): BQL
Plasma concentration, 2 h ([4]; 2 h after single oral rikkunshito 7.5 g, mean ± S.D., n = 4): BQL
Plasma concentration, 4 h ([4]; mean ± S.D., n = 4): BQL
Plasma concentration, 8 h ([4]; mean ± S.D., n = 4): BQL

CCCCC[C@H](O)CC(=O)CCc1ccc(O)c(OC)c1 [[6]-Gingerol, [6]-Gingerol]
Stability in gastric pH solution, Quantitative value ([1]; 0.5 h, pH 1.2): 152 ng/mL
Stability in gastric pH solution, Quantitative value ([1]; 1 h, pH 1.2): 154 ng/mL
Stability in gastric pH solution, Quantitative value ([1]; 2 h, pH 1.2): 149 ng/mL
Amount in urine, Pre ([2]; human, in vivo): 18.6 ± 26.2 ng
Amount in urine, 0–4 h ([2]; human, in vivo, po): 602 ± 552 ng
Amount in urine, 4–8 h ([2]; human, in vivo, po): 35.0 ± 57.1 ng
Amount in enzyme-treated urine, 0–4 h ([3]; human, in vivo): 8170 ± 5630 ng
Amount in enzyme-treated urine, 4–8 h ([3]; human, in vivo): 821 ± 654 ng
Amount in enzyme-treated urine, Pre ([3]; human, in vivo): 278 ± 261 ng
Increase of urine concentration after β-glucuronidase treatment compared with before treatment ([3]; human, in vivo): more than 10 fold

CCCCC/C=C/C(=O)CCc1ccc(O)c(OC)c1 [[6]-Shogaol, [6]-Shogaol]
Stability in gastric pH solution, Quantitative value [1, 14]: 17.9 ng/mL
Stability in gastric pH solution, Quantitative value [1, 15]: 18.5 ng/mL
Stability in gastric pH solution, Quantitative value [1, 16]: 17.9 ng/mL
Amount in urine, 0–4 h [2, 8]: 459 ± 283 ng
Amount in urine, 4–8 h [2, 9]: 15.4 ± 30.7 ng
Amount in urine, Pre [2, 10]: 16.3 ± 26.4 ng
Increase of urine concentration after β-glucuronidase treatment compared with before treatment ([3]; rikkunshito 7.5 g): more than 10 fold
Amount in enzyme-treated urine, 0–4 h [3, 11]: 4980 ± 1480 ng
Amount in enzyme-treated urine, 4–8 h [3, 12]: 392 ± 310 ng
Amount in enzyme-treated urine, Pre [3, 13]: 109 ± 160 ng

CCCCCCC[C@H](O)CC(=O)CCc1ccc(O)c(OC)c1 [[8]-Gingerol, [8]-Gingerol]
Amount in urine, 0–4 h [2, 8]: 8.97 ± 17.9 ng
Amount in urine, 4–8 h [2, 9]: BQL
Amount in urine, Pre [2, 10]: BQL
Amount in enzyme-treated urine, 0–4 h [3, 11]: 49.5 ± 78.3 ng
Amount in enzyme-treated urine, 4–8 h [3, 12]: BQL
Amount in enzyme-treated urine, Pre [3, 13]: 2.73 ± 5.46 ng

CCCCCCC/C=C/C(=O)CCc1ccc(O)c(OC)c1 [[8]-Shogaol, [8]-Shogaol]
Stability in gastric pH solution, Quantitative value [1, 14]: 2.00 ng/mL
Stability in gastric pH solution, Quantitative value [1, 15]: 1.89 ng/mL
Stability in gastric pH solution, Quantitative value [1, 16]: 1.83 ng/mL
Amount in urine, 0–4 h [2, 8]: 9.00 ± 18.0 ng
Amount in urine, 4–8 h [2, 9]: BQL
Amount in urine, Pre [2, 10]: BQL
Increase of urine concentration after β-glucuronidase treatment compared with before treatment ([3]; rikkunshito 7.5 g): more than 10 fold
Amount in enzyme-treated urine, 0–4 h [3, 11]: 239 ± 62.5 ng
Amount in enzyme-treated urine, 4–8 h [3, 12]: BQL
Amount in enzyme-treated urine, Pre [3, 13]: 3.73 ± 7.46 ng

CC1(C)[C@@H](O[C@H]2O[C@H](C(=O)O)[C@@H](O)[C@H](O)[C@H]2O[C@@H]2O[C@H](C(=O)O)[C@@H](O)[C@H](O)[C@H]2O)CC[C@]2(C)[C@H]3C(=O)C=C4[C@@H]5C[C@@](C)(C(=O)O)CC[C@]5(C)CC[C@@]4(C)[C@]3(C)CC[C@@H]12 [glycyrrhizic acid]
Formation of ingredients: form found in Blood [7]: 18β-Glycyrrhetinic acid Glycyrrhetinic acid 3-O-glucuronide
Formation of ingredients: form found in Urine ([7]; BQL = below the quantification limit): 18β-Glycyrrhetinic acid Glycyrrhetinic acid 3-O-glucuronide
